Reference: patent publication US20260217701A1, “SELECTIVE BET INHIBITORS AND USES THEREOF” (Tay Therapeutics Limited, priority 2022, published 2026)

Assays:
BRD4 BD2 = target: T1, BRD4 BD2 (Homo sapiens, UniProt O60885); test: NanoBRET bromodomain assay, NanoLuc-BRD4-BD2 in HEK293 cells; format: binding; conditions: for Fold Selectivity BRD4 BD1/BD2: IC50 BD1/IC50 BD2, qualitative if an IC50 is at the upper limit
T1 construct: HEK293 cells were transfected using NanoLuc-BRD4-BD1 or NanoLuc-BRD4-BD2 fusion vectors
Protocol: (§1) Plates were then incubated at 37° C.+5% CO2 incubator for 2 hours.
(§2) Fold Selectivity Calculated (IC50 BD1/IC50 BD2).

BRD4 BD1 = target: T2, BRD4 BD1 (Homo sapiens, UniProt O60885); test: NanoBRET bromodomain assay, NanoLuc-BRD4-BD1 in HEK293 cells; format: binding
T2 construct: HEK293 cells were transfected using NanoLuc-BRD4-BD1 or NanoLuc-BRD4-BD2 fusion vectors
Protocol: Exemplary compounds of the disclosure are active against BRD4 BD2 and selective over BRD4 BD1. BRD4 is a representative example of the BET family, as the binding sites of all BET family members are structurally similar. […] IC50s and fold selectivity's are determined as described below and are represented in Table 1.
as §1, §2

SMILES | IC50 (BRD4 BD2) | Fold Selectivity BRD4 BD1/BD2 (BRD4 BD2) | IC50 (BRD4 BD1)
Cc1cccc(C)c1Oc1cn(C)c(=O)cc1-c1cn(C)c(=O)c2[nH]c(-c3cnn(C(F)F)c3)cc12 [Example 12, 2-(1-(difluoromethyl)-1H-pyrazol-4-yl)-4-(5-(2,6-dimethylphenoxy)-1-methyl-2-oxo-1,2-dihydropyridin-4-yl)-6-methyl-1,6-dihydro-7H-pyrrolo[2,3-c]pyridin-7-one] | 10 to 50 nM | xxx (Fold >200 and ≤1000) | > 1000 nM
Cc1cccc(C)c1Oc1cn(C)c(=O)cc1-c1cn(C)c(=O)c2[nH]c(-c3cnn(CC(F)(F)F)c3)cc12 [Example 13, 4-(5-(2,6-dimethylphenoxy)-1-methyl-2-oxo-1,2-dihydropyridin-4-yl)-6-methyl-2-(1-(2,2,2-trifluoroethyl)-1H-pyrazol-4-yl)-1,6-dihydro-7H-pyrrolo[2,3-c]pyridin-7-one] | 10 to 50 nM | xxx (Fold >200 and ≤1000) | > 1000 nM
Cc1cccc(C)c1Oc1cn(C)c(=O)cc1-c1cn(C)c(=O)c2[nH]c(-c3cnn(CCF)c3)cc12 [Example 14, 4-(5-(2,6-dimethylphenoxy)-1-methyl-2-oxo-1,2-dihydropyridin-4-yl)-2-(1-(2-fluoroethyl)-1H-pyrazol-4-yl)-6-methyl-1,6-dihydro-7H-pyrrolo[2,3-c]pyridin-7-one] | < 10 nM | x (Fold >2 and ≤50) | 50 to 500 nM
Cc1cccc(C)c1Oc1cn(C)c(=O)cc1-c1cn(C)c(=O)c2[nH]c(-c3cn(CC(F)(F)F)nc3C)cc12 [Example 15, 4-(5-(2,6-dimethylphenoxy)-1-methyl-2-oxo-1,2-dihydropyridin-4-yl)-6-methyl-2-(3-methyl-1-(2,2,2-trifluoroethyl)-1H-pyrazol-4-yl)-1,6-dihydro-7H-pyrrolo[2,3-c]pyridin-7-one] | 10 to 50 nM | xx (Fold >50 and ≤200) | 500 to 1000 nM
Cc1cccc(C)c1Oc1cn(C)c(=O)cc1-c1cn(C)c(=O)c2[nH]c(-c3cnn(CC(F)(F)F)c3C)cc12 [Example 16, 4-(5-(2,6-dimethylphenoxy)-1-methyl-2-oxo-1,2-dihydropyridin-4-yl)-6-methyl-2-(5-methyl-1-(2,2,2-trifluoroethyl)-1H-pyrazol-4-yl)-1,6-dihydro-7H-pyrrolo[2,3-c]pyridin-7-one] | < 10 nM | xx (Fold >50 and ≤200) | > 1000 nM
Cn1cc(-c2cccc(COC(F)(F)F)c2)c(-c2cn(C)c(=O)c3[nH]c(-c4cnn(C(F)(F)F)c4)cc23)cc1=O [Example 17, 6-methyl-4-(1-methyl-2-oxo-5-(3-((trifluoromethoxy)methyl)phenyl)-1,2-dihydropyridin-4-yl)-2-(1-(trifluoromethyl)-1H-pyrazol-4-yl)-1,6-dihydro-7H-pyrrolo[2,3-c]pyridin-7-one] | < 10 nM | xxxx (Fold >1000) | > 1000 nM
Cn1cc(-c2ccc(COC(F)(F)F)cc2)c(-c2cn(C)c(=O)c3[nH]c(-c4cnn(C(F)(F)F)c4)cc23)cc1=O [Example 18, 6-methyl-4-(1-methyl-2-oxo-5-(4-((trifluoromethoxy)methyl)phenyl)-1,2-dihydropyridin-4-yl)-2-(1-(trifluoromethyl)-1H-pyrazol-4-yl)-1,6-dihydro-7H-pyrrolo[2,3-c]pyridin-7-one] | < 10 nM | xxxx (Fold >1000) | > 1000 nM
CCn1cc(-c2cc(=O)n(C)cc2-c2ccccc2)c2cc(-c3cnn(C(F)(F)F)c3)[nH]c2c1=O [Example 19, 6-ethyl-4-(1-methyl-2-oxo-5-phenyl-1,2-dihydropyridin-4-yl)-2-(1-(trifluoromethyl)-1H-pyrazol-4-yl)-1,6-dihydro-7H-pyrrolo[2,3-c]pyridin-7-one] | < 10 nM | xxxx (Fold >1000) | > 1000 nM
Cc1c(-c2cnn(C(F)(F)F)c2)[nH]c2c(=O)n(C)cc(-c3cc(=O)n(C)cc3-c3ccccc3)c12 [Example 20, 3,6-dimethyl-4-(1-methyl-2-oxo-5-phenyl-1,2-dihydropyridin-4-yl)-2-(1-(trifluoromethyl)-1H-pyrazol-4-yl)-1,6-dihydro-7H-pyrrolo[2,3-c]pyridin-7-one] | 10 to 50 nM | xxx (Fold >200 and ≤1000) | > 1000 nM
Cn1cc(-c2ccccc2)c(-c2cn(C)c(=O)c3[nH]c(-c4cnn(C(F)(F)F)c4)c(F)c23)cc1=O [Example 21, 3-fluoro-6-methyl-4-(1-methyl-2-oxo-5-phenyl-1,2-dihydropyridin-4-yl)-2-(1-(trifluoromethyl)-1H-pyrazol-4-yl)-1,6-dihydro-7H-pyrrolo[2,3-c]pyridin-7-one] | < 10 nM | xxxx (Fold >1000) | > 1000 nM
Cn1cc(-c2cc(=O)n(CCOC(F)F)cc2-c2ccccc2)c2cc(-c3cnn(C(F)(F)F)c3)[nH]c2c1=O [Example 22, 4-(1-(2-(difluoromethoxy)ethyl)-2-oxo-5-phenyl-1,2-dihydropyridin-4-yl)-6-methyl-2-(1-(trifluoromethyl)-1H-pyrazol-4-yl)-1,6-dihydro-7H-pyrrolo[2,3-c]pyridin-7-one] | < 10 nM | xxxx (Fold >1000) | > 1000 nM
CSCCn1cc(-c2ccccc2)c(-c2cn(C)c(=O)c3[nH]c(-c4cnn(C(F)(F)F)c4)cc23)cc1=O [Example 23, 6-methyl-4-(1-(2-(methylthio)ethyl)-2-oxo-5-phenyl-1,2-dihydropyridin-4-yl)-2-(1-(trifluoromethyl)-1H-pyrazol-4-yl)-1,6-dihydro-7H-pyrrolo[2,3-c]pyridin-7-one] | < 10 nM | xxxx (Fold >1000) | > 1000 nM
CSCc1ccc(-c2cn(C)c(=O)cc2-c2cn(C)c(=O)c3[nH]c(-c4cnn(C(F)(F)F)c4)cc23)cc1 [Example 24, 6-methyl-4-(1-methyl-5-(4-((methylthio)methyl)phenyl)-2-oxo-1,2-dihydropyridin-4-yl)-2-(1-(trifluoromethyl)-1H-pyrazol-4-yl)-1,6-dihydro-7H-pyrrolo[2,3-c]pyridin-7-one] | < 10 nM | xxxx (Fold >1000) | > 1000 nM
CSCc1cccc(-c2cn(C)c(=O)cc2-c2cn(C)c(=O)c3[nH]c(-c4cnn(C(F)(F)F)c4)cc23)c1 [Example 25, 6-methyl-4-(1-methyl-5-(3-((methylthio)methyl)phenyl)-2-oxo-1,2-dihydropyridin-4-yl)-2-(1-(trifluoromethyl)-1H-pyrazol-4-yl)-1,6-dihydro-7H-pyrrolo[2,3-c]pyridin-7-one] | < 10 nM | xxxx (Fold >1000) | > 1000 nM
Cc1cc(-c2cc3c(-c4cc(=O)n(C)cc4-c4ccccc4F)cn(C)c(=O)c3[nH]2)cc(C)n1.Cl [Example 26, 2-(2,6-dimethylpyridin-4-yl)-4-(5-(2-fluorophenyl)-1-methyl-2-oxo-1,2-dihydropyridin-4-yl)-6-methyl-1,6-dihydro-7H-pyrrolo[2,3-c]pyridin-7-one hydrogen chloride] | < 10 nM | xxx (Fold >200 and ≤1000) | 500 to 1000 nM
